Assay results reported in patent US20140187505A1, “Cardiac Glycosides to Treat Cystic Fibrosis and Other IL-8 Dependent Disorders” (priority 2002, published 2014).
Where “and” joins values, the source holds several entries; their conditions need not be identical. Equal entries are not always repeated. Where two headings read alike, the source gives them in different places.

Columns and labels:
[1] = tested on: TNFa/NFkB signaling pathway; experiment: Reverse Phase Protein Microarrays of TNFa/NFkB pathway phosphorylation in IB3-1 cells; type: cell-based, human; conditions: IC-90 concentrations
Text: Previously published data have implicated a dysfunctional TNFa/NFkB signaling pathway as responsible for the pro-inflammatory phenotype of the CF lung (Eidelman et al, 2001a). […] IC-90 means a concentration of drug that blocks 90% of IL-8 secretion from the IB3-1 cells. […] (See FIG. 1).

[2] = tested on: rat PAIII castration-resistant prostate cancer cells; experiment: MicroRNA expression in cultured PAIII cells (TaqMan, DDCt); type: cell-based; conditions: 6 nM Digitoxin, 24 hours
[3] = tested on: collagen induced arthritis (CIA) mice; conditions: mouse, in vivo
[4] = tested on: Human castration-resistant prostate cancer PC3 cells; experiment: EMT protein expression in PC3 cells (Western blot); type: cell-based; conditions: 24 hours, vehicle 100%
[5] = for 70 kg man, cited from earlier work
PAIII cancer cells = tested on: PAIII cancer cells; set-up: species or system Lobund-Wistar rats; conditions: rat, in vivo
[6] = tested on: guinea-pig heart Na^+-K^+-ATPase; conditions: cited from earlier work
[7] = tested on: IL-6 and CINC1 (rat IL-8 equivalent); experiment: Serum IL-6 and CINC1 in rats bearing PAIII tumors; type: in vivo; conditions: digitoxin 0.03 mg/kg daily for 30 days, serum day 30
[8] = tested on: HeLa cervical cancer cells; experiment: cells; conditions: Homo sapiens, 24 h, read-out: IC50 dose for cell death
[9] = octanol/water (20 mM TRIS-HCl, pH 7.4), cited from earlier work
[10] = tested on: PAIII Castration Resistant Prostate Cancer cells; set-up: species or system Lobund-Wistar rats; conditions: rat, in vivo
[11] = tested on: clear cell renal carcinoma metastatic to the brain and spinal cord; conditions: human, in vivo
[12] = tested on: IL-8 secretion from cystic fibrosis lung epithelial IB3-1 cells; conditions: Homo sapiens, IB3-1, 48 h
[13] = eluent acetonitrile/water 45:55; cited from earlier work
[14] = tested on: rat lungs infected with influenza; experiment: Cytokines and chemokines in lungs of influenza-infected cotton rats; type: in vivo; conditions: 3, 10 or 30 microgram/kg ip daily, lung harvested day 4
Description: Fifteen standard cotton rats were divided into five groups of three each. […] The rats in the treatment groups were pre-treated on the preceding day with either 3, 10, or 30 micro-g/kg intraperitoneally. […] Each rat was then treated on Day 1 with 100 microliters of Wuhan Strain influenza virus (titer-10^8 TC-IC 50/ml) (IC is […]) by intra-nasal administration to induce lung inflammation.
The rats were sacrificed on the last day 4 hrs after treatment.
Pieces of lung was harvested on day 4 and homogenized in PBS by glass-on-glass homogenizer in 1 gram/ml. Samples are frozen on dry ice, and then transferred to −80° C. for analysis. […] Rodents lack IL-8 and instead have GRO/KC and MIP-2. […] GM-CSF was undetectable in the tissue under any conditions.

[15] = tested on: HeLa cervical cancer cells; conditions: human
[16] = tested on: Cystic Fibrosis IB-3 Lung Epithelial Cells; experiment: Secretion of proinflammatory mediators from IB-3 cells (ELISA, 24 hours); type: cell-based; conditions: Homo sapiens, Epithelial cell
[17] = mobile phase: methanol/water 30:70; cited from earlier work
[18] = tested on: rat PAIII castration resistant prostate cancer cells; experiment: EMT mRNA expression in cultured PAIII cells (FPKM); conditions: 6 nM Digitoxin, 24 hours

## C[C@H]1O[C@@H](O[C@H]2[C@@H](O)C[C@H](O[C@H]3[C@@H](O)C[C@H](O[C@H]4CC[C@@]5(C)[C@H](CC[C@@H]6[C@@H]5CC[C@]5(C)[C@@H](C7=CC(=O)OC7)CC[C@]65O)C4)O[C@@H]3C)O[C@@H]2C)C[C@H](O)[C@@H]1O [digitoxin]
[1]
  Constitutive phosphorylation of IkBalpha and NFkB, p65: significantly suppressed
  Phosphorylation of IKKalpha: modestly suppressed
[2]
  miR467b DDCt, Digitoxin - Vehicle: 20.10
  miR-122 DDCt, Digitoxin - Vehicle: 11.005
  miR-291a-3p DDCt, Digitoxin - Vehicle: 19.13
  miR-347 DDCt, Digitoxin - Vehicle: 4.34
  miR-376a DDCt, Digitoxin - Vehicle: −32.75(↑)
  miR-380-3p DDCt, Digitoxin - Vehicle: 16.57
  miR-411 DDCt, Digitoxin - Vehicle: 4.61
  miR-667 DDCt, Digitoxin - Vehicle: 7.01
  miR-670 DDCt, Digitoxin - Vehicle: −12.11(↑)
  miR-879 DDCt, Digitoxin - Vehicle: 11.31
[3]
  Incidence of CIA (mice that developed symptoms): 50%
  Inflammatory focus (pannus-like) in metatarsal-phalangeal joints, histopathology: absent
  Mean paw thickness: decreased
  Severity of CIA (mean visual score): significant reduction
[4]; Digitoxin 10 nM
  E-Cadherin % Band Intensity: 0%,
  SNAI1 % Band Intensity: 0%,
  Vimentin % Band Intensity: 0%,
[4]; Digitoxin 25 nM
  E-Cadherin % Band Intensity: 0%,
  SNAI1 % Band Intensity: 0%,
  Vimentin % Band Intensity: 0%,
[5]
  Human toxicity limit: 3036 nmol
  Human toxicity limit, Nmol/L = nM: 45.4 nM
[5]; ouabain value is lethal dose
  Human toxicity limit: >2.5 mg
PAIII cancer cells
  Diameter of metastatic foci, mm, (median): 1.76 mm
  Number of pleural metastatic foci (median): 122
[6]
  ID50: 0.31 ± 0.03 ×10^−4 mol l^−1
[7]; control 47.9 ± 14.1
  Serum Interleukin-6 (IL-6): 37.0 ± 16.9 pg/mL
[7]; control 60.32 ± 20.6
  Serum CINC1/KC (rat IL-8 equivalent): 47.9 ± 14.4 pg/mL
[8]
  IC50: ~200000 pM
[9]
  P (partition coefficient in octanol/water system): 670 and 680
[9]; listed as Digitoxin
  P (partition coefficient in octanol/water system): 670.0 ± 105.0
[10]
  Diameter of metastasis, mm (median): 0.87 mm
  Number of Pleural Metastases (median): 16
  Weight of Primary Tumor, gm (median): 19.6 gm
[11]
  Clinical outcome of one cancer patient: positive result
[12]; read-out: IC50 nmol/L in cells
  IC50: 0.9 nmol/L
[12]; read-out: IC50 (K50) for spontaneous IL-8 secretion
  IC50: ~0.9 nmol/L
[13]
  K retentions for reversed-phase high pressure liquid chromatography: 3.34
[14]
  GRO/KC in lung: significant reductions
  IFNγ in lung: significant reductions
  IL-13 in lung: No significant changes
  MCP-1 in lung: significant reductions
  MIP-2 in lung: significant reductions
  TGFβ in lung: No significant changes
  TNFa in lung: significant reductions
[15]
  Threshold concentration for an increase in cell death: 70 to 100 nM
[16]; read-out: ICAM1 secretion, % of Control
  activity at 0.01 µM: 19%
[16]; read-out: ICAM1 secretion, % of control
  activity at 0.03 µM: 30%
[16]; read-out: IFN-gamma secretion, % of Control
  activity at 0.01 µM: 100%
[16]; read-out: IFN-gamma secretion, % of control
  activity at 0.03 µM: 35%
[16]; read-out: IL-1-beta secretion, % of Control
  activity at 0.01 µM: 50%
[16]; read-out: IL-1-beta secretion, % of control
  activity at 0.03 µM: 50%
[16]; read-out: IL-6 secretion, % of Control
  activity at 0.01 µM: 3%
[16]; read-out: IL-6 secretion, % of control
  activity at 0.03 µM: 0%
[16]; read-out: IL-8 secretion, % of Control
  activity at 0.01 µM: 2%
[16]; read-out: IL-8 secretion, % of control
  activity at 0.03 µM: 0%
[16]; read-out: IP-10 secretion, % of Control
  activity at 0.01 µM: 100%
[16]; read-out: IP-10 secretion, % of control
  activity at 0.03 µM: 100%
[16]; read-out: TNFalpha secretion, % of Control
  activity at 0.01 µM: 5%
[16]; read-out: TNFalpha secretion, % of control
  activity at 0.03 µM: 0%
[17]
  RM values (lipophilicity, reversed-phase thin layer chromatography): 1.37
[18]
  FOXP3 mRNA % change: −30%
  Hepatocyte Growth Factor mRNA % change: −50%
  Igf2r mRNA % change: −40%
  Vimentin mRNA % change: −10%
  Zeb2 mRNA % change: −30%
